Earlier results, collected in US12404348B2, “Bifunctional chimeric molecules for labeling of kinases with target binding moieties and methods of use thereof” (The Brigham and Women's Hospital, Inc., priority 2021, dated 2025).
Like-named read-outs stand apart in the source and are kept apart here.

Tests used:
AKT1 [1] = molecular target: T1, AKT1 (Homo sapiens, UniProt P31749)
AKT1 [2] = molecular target: T1, AKT1; remark: listed apart in the source
PDK1 [3] = molecular target: T2, PDK1 (Homo sapiens, UniProt O15530)
T2 sequence (O15530 1-556): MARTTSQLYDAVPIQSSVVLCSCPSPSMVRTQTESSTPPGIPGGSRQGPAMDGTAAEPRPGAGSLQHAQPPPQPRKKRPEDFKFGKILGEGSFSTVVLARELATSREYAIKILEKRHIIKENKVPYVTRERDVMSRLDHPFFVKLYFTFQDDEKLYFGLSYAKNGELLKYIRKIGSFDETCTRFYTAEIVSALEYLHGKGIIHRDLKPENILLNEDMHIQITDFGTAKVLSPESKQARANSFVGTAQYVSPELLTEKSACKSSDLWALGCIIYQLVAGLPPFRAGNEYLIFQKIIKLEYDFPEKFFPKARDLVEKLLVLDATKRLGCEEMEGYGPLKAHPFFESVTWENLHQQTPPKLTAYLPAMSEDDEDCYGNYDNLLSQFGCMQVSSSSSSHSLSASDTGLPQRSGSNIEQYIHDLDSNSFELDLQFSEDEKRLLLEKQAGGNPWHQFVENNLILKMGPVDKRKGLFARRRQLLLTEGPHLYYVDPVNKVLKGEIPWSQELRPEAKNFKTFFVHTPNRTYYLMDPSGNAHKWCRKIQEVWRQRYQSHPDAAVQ

PDK1 [4] = molecular target: T2, PDK1; details: for Kd: read-out: ITC Kd
[5] = not given; remark: listed apart in the source

T1 sequence (P31749 whole entry): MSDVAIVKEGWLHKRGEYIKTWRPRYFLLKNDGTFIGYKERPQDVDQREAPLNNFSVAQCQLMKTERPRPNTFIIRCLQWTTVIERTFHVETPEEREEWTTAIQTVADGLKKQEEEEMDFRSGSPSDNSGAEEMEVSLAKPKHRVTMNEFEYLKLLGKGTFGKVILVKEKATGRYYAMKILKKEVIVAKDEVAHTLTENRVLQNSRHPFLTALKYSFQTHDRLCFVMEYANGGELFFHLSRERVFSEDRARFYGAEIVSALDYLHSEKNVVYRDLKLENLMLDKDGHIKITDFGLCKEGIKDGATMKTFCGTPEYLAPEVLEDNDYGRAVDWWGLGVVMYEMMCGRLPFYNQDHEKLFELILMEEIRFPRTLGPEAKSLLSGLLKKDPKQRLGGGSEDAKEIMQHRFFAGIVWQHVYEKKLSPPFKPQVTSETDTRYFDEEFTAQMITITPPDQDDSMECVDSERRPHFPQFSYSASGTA

**Q.** Which results are given for `CC(C)(C)c1cccc(-n2c(-c3cccnc3N)nc3cccnc32)c1` [Compound 3h]?
**A.** Akt1 ΔTm (AKT1 [1]): no shift; IC50 (AKT1 [2]): > 300 µM

**Q.** Which AC50 (PDK1 [3]) does the source give for `O=C(O)/C=C(\CCc1ccc(F)cc1)c1ccccc1` [Compound 4E] here?
**A.** n.e.

**Q.** What about the Amax (PDK1 [3]) of the same compound?
**A.** n.e.

**Q.** Which Amax (PDK1 [3]) does the source give for `O=C(O)/C=C(/CCc1ccc(F)cc1)c1ccccc1` [Compound 4Z] here?
**A.** 3.3 fold

**Q.** Which Amax (PDK1 [3]) does the source give for `O=C(O)/C=C(/CCc1ccc(Br)cc1)c1ccccc1` [Compound 5Z] here?
**A.** 3.9 fold

**Q.** What about the “ITC Ka” value (PDK1 [4]) of the same compound?
**A.** 4.78E4 — M^-1

**Q.** What about the “ITC TΔS” value (PDK1 [4]) of the same compound?
**A.** 3.20 kcal/mol

**Q.** And the “ITC ΔG” value (PDK1 [4])?
**A.** -6.32 kcal/mol

**Q.** And the “ITC ΔH” value (PDK1 [4])?
**A.** -3.07 kcal/mol

**Q.** What about the “ITC ΔH/ΔG” value (PDK1 [4]) of the same compound?
**A.** 48.6%

**Q.** With `NCc1ccc(-n2c(-c3cccnc3)nc3cccnc32)cc1` [Compound 5b] as the compound, how does the “Akt1 ΔTm” value (AKT1 [1]) read?
**A.** no shift

**Q.** With `CC(=O)Nc1ccc(-n2c(-c3cccnc3N)nc3cccnc32)cc1` [Compound 5c] as the compound, how does the “Akt1 ΔTm” value (AKT1 [1]) read?
**A.** 3.7 °C

**Q.** Which “Akt1 ΔTm” value (AKT1 [1]) does the source give for `Nc1ccc(-n2c(-c3cccnc3N)nc3cccnc32)cc1` [Compound 5d] here?
**A.** 4.1 °C

**Q.** Which Amax (PDK1 [3]) does the source give for `O=C(O)/C=C(/CCc1ccc(C(F)(F)F)cc1)c1ccccc1` [Compound 6Z] here?
**A.** 4.4 fold

**Q.** And the AC50 (PDK1 [3]; read-out: AC50)?
**A.** 7.1 µM

**Q.** And the “ITC Ka” value (PDK1 [4])?
**A.** 9.66E4 — M^-1

**Q.** And the “ITC TΔS” value (PDK1 [4])?
**A.** 4.79 kcal/mol

**Q.** What about the “ITC ΔG” value (PDK1 [4]) of the same compound?
**A.** -6.73 kcal/mol

**Q.** What about the “ITC ΔH” value (PDK1 [4]) of the same compound?
**A.** -1.94 kcal/mol

**Q.** And the “ITC ΔH/ΔG” value (PDK1 [4])?
**A.** 28.8%

**Q.** And the Kd (PDK1 [4])?
**A.** 10.4 µM

**Q.** Which results are given for `O=C(O)/C=C(/CCc1ccc(Cl)c(Cl)c1)c1ccccc1` [Compound 7Z]?
**A.** Amax (PDK1 [3]): 2.4 fold; AC50 (PDK1 [3]; read-out: AC50): 2.8 µM; ITC Ka (PDK1 [4]): 7.18E4 — M^-1; ITC TΔS (PDK1 [4]): 2.80 kcal/mol; ITC ΔG (PDK1 [4]): -6.56 kcal/mol; ITC ΔH (PDK1 [4]): -3.71 kcal/mol; ITC ΔH/ΔG (PDK1 [4]): 56.6%; Kd (PDK1 [4]): 13.9 µM

**Q.** Which AC50 (PDK1 [3]) does the source give for `O=C(O)/C=C(\CCc1ccc(Cl)cc1Cl)c1ccccc1` [Compound 8E] here?
**A.** n.e.

**Q.** What about the Amax (PDK1 [3]) of the same compound?
**A.** n.e.

**Q.** With `O=C(O)/C=C(/CCc1ccc(Cl)cc1Cl)c1ccccc1` [Compound 8Z] as the compound, how does the Amax (PDK1 [3]) read?
**A.** 2.1 fold

**Q.** And the AC50 (PDK1 [3]; read-out: AC50)?
**A.** 4.7 µM

**Q.** And the “ITC Ka” value (PDK1 [4])?
**A.** 1.71E5 — M^-1

**Q.** What about the “ITC TΔS” value (PDK1 [4]) of the same compound?
**A.** 4.93 kcal/mol

**Q.** And the “ITC ΔG” value (PDK1 [4])?
**A.** -7.07 kcal/mol

**Q.** What about the “ITC ΔH” value (PDK1 [4]) of the same compound?
**A.** -2.08 kcal/mol

**Q.** What about the “ITC ΔH/ΔG” value (PDK1 [4]) of the same compound?
**A.** 29.5%

**Q.** With `Nc1ncccc1-c1nc2cccnc2n1-c1cccc(CNC(=O)c2ccccc2)c1` [Compound 8g] as the compound, how does the “Akt1 ΔTm” value (AKT1 [1]) read?
**A.** no shift

**Q.** Which “Akt1 ΔTm” value (AKT1 [1]) does the source give for `Nc1ncccc1-c1nc2cccnc2n1-c1ccc(CNCc2ccccc2)cc1` [Compound 8h] here?
**A.** 4.9 °C

**Q.** For `CCc1ccc(CC/C(=C\C(=O)O)c2ccccc2)cc1` [Compound 10E], which AC50 (PDK1 [3]) is on record?
**A.** n.e.

**Q.** And the Amax (PDK1 [3])?
**A.** n.e.

**Q.** Which results are given for `CCc1ccc(CC/C(=C/C(=O)O)c2ccccc2)cc1` [Compound 10Z]?
**A.** Amax (PDK1 [3]): 1.4 fold; AC50 (PDK1 [3]; read-out: AC50): > 30 µM

**Q.** For `O=C(O)/C=C(\CCc1ccc(-c2ccccc2)cc1)c1ccccc1` [Compound 11E], which Amax (PDK1 [3]) is on record?
**A.** n.e.

**Q.** For `O=C(O)/C=C(/CCc1ccc(-c2ccccc2)cc1)c1ccccc1` [Compound 11Z], which Amax (PDK1 [3]) is on record?
**A.** 3.2 fold

**Q.** What does the source list for `O=C(O)/C=C(/CCc1ccc2ccccc2c1)c1ccccc1` [Compound 12Z]?
**A.** Amax (PDK1 [3]): 3.5 fold; ITC Ka (PDK1 [4]): 7.26E4 — M^-1; ITC TΔS (PDK1 [4]): 1.96 kcal/mol; ITC ΔG (PDK1 [4]): -6.67 kcal/mol; ITC ΔH (PDK1 [4]): -4.56 kcal/mol; ITC ΔH/ΔG (PDK1 [4]): 68.3%

**Q.** For `O=C(O)/C=C(/CCc1c[nH]c2ccccc12)c1ccccc1` [Compound 13Z], which Amax (PDK1 [3]) is on record?
**A.** 3.1 fold

**Q.** And the “ITC Ka” value (PDK1 [4])?
**A.** 9.63E4 — M^-1

**Q.** And the “ITC TΔS” value (PDK1 [4])?
**A.** 2.60 kcal/mol

**Q.** And the “ITC ΔG” value (PDK1 [4])?
**A.** -6.73 kcal/mol

**Q.** And the “ITC ΔH” value (PDK1 [4])?
**A.** -4.09 kcal/mol

**Q.** And the “ITC ΔH/ΔG” value (PDK1 [4])?
**A.** 60.8%

**Q.** With `O=C(NOC[C@@H](O)CO)c1ccc(F)c(F)c1Nc1ccc(I)cc1F` [Compound 35] as the compound, how does the “Sol (pH 6.5)” value read?
**A.** 255, μg/mL

**Q.** For `CC(=O)NC1=NN(c2ccc(Cl)c(Cl)c2)CC1C` (stereo not drawn) [Compound 45], which “In Vivo Plasma Concentration” value ([5]; 40 min) is on record?
**A.** 5540 ± 233 ng/mL

**Q.** And the “In Vivo Plasma Concentration” value ([5]; 180 min)?
**A.** 2540 ± 143 ng/mL

**Q.** Which “Sol (pH 6.5)” value does the source give for `O=C(NOC[C@H](O)CO)c1ccc(F)c(F)c1Nc1ccc(I)cc1F` [Mirdametinib] here?
**A.** 190 μg/mL
